# Measured values reported in US11214556B1, “Method of treating colorectal cancer” (King Abdulaziz University, priority 2019, dated 2022).
# How the values were obtained:
# HCT-116 cells [1] = assay: SRB cytotoxicity assay, HCT-116; type: cell-based, human; conditions: SRB assay, 72 h exposure; ± SEM
# Summary of the method: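 Cells in RPMI1640/10% FBS were seeded at 5000 per well and grown 24 h. They were then exposed to 0.01–100 μM compound, or 1% DMSO, for 72 h at 37 °C. After TCA fixation and SRB staining, OD was read at 510 nm and viability expressed relative to untreated controls.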
# HCT-116 cells [2] = assay: Nuclear fragmentation by DAPI staining; type: cell-based, human; conditions: 2.85 μM (IC50), 48 h compared to 24 h
# Method: Several assays were performed to determine the apoptotic effect of the early lead MOS-1512 as well as the potent derivative MOS-4112 on HCT-116 cells. […] See Drutovic, D.; Chripkova, M.; Pilatova, M.; Kruzliak, P.; Perjesi, P.; Sarissky, M.; Lupi, M.; Damia, G.; Broggini, M.; Mojzis, J., Benzylidenetetralones, cyclic chalcone analogues, induce cell cycle arrest and apoptosis in HCT116 colorectal cancer cells. Tumour Biol 2014, 35 (10), 9967-75, incorporated herein by reference in its entirety.
# Cells were cultured on sterile 22 mm^2 cover slips (Harvard Apparatus, MA, USA) in sterile six well plates at a density of 2×10^5 cells/well. […] The fixed and permeabilized cells nuclei were denatured with 2 N HCl (300 μl) for 10 min, washed three times more, and treated with 0.1 μg/ml 4′,6′-diamidino-2-phenylindole, dihydrochloride (DAPI) (Sigma-Aldrich, St. Louis, Mo., USA) (1:1000) in (phosphate-buffered saline-Tween 20 (PBST) for 1 hr. After staining, the cells were washed twice with PBS. The cover slips were then mounted on a glass slide with anti-fade mounting medium and viewed with an epifluorescence microscope, Leica, DM 5500 B (Leica, Buffalo Grove, Ill., USA) at a magnification of 60×, and data were captured digitally and quantified using the microscope provided software.
# Swiss albino mice = assay: Acute oral toxicity (LD50), OECD guideline 423; type: in vivo; conditions: oral, mice
# Source text: Since compounds with electrophilic properties, e.g., MA are usually involved in a variety of toxic effects on mammalians, the general acute toxicity of 1512, 3712 and 4112 was investigated by determining the in vivo lethal dose (LD50) according to the Globally Harmonized Classification System (GHS) and following the Organization for Economic Cooperation and Development (OECD) guideline 423 (modified, adopted Mar. 23, 2006). As observed in the cellular assay, the compound safety was confirmed, as the LD50 for all compounds were between 2000-5000 mg/kg (Category 5). See Spielmann, H.; Genschow, E.; Liebsch, M.; Halle, W., Determination of the starting dose for acute oral toxicity (LD50) testing in the up and down procedure (UDP) from cytotoxicity data. ATLA 1999, 27 (6), 957-966, incorporated herein by reference in its entirety.
# The experiment was conducted on 12 healthy Swiss albino mice (males and females) weighing 22-27 g and aged 8 to 10 weeks obtained from the Animal Station, Pharmacology Dept, Faculty of Pharmacy, King Abdulaziz University, Jeddah. See Shoieb, S. M.; Esmat, A.; Khalifa, A. E.; Abdel-Naim, A. B., Chrysin attenuates testosterone-induced benign prostate hyperplasia in rats. Food and Chemical Toxicology 2018, 111, 650-659, incorporated herein by reference in its entirety. All animals were kept at the regulated temperature (average 23° C.), air quality (Central air conditioning) and light (12-h light/dark cycles). Animals were provided free access to food pellets ad libitum and water. The experimental procedure was approved by the Research Ethics Committee, Faculty of Pharmacy, King Abdulaziz University prior to starting the laboratory work. Animals were humanely treated according to international and scientific principles. Changes other than vitality of the animals such as behavioral and food consumption habits were not observed in this study.
# The compounds 1512, 3712 and 4112 of purity 95% or more (LC/MS) were prepared for this study as 10% suspension in water containing 0.5% tween 80.
# The animals were distributed randomly into four groups (3 mice at each group). […] The second group received an oral dose of 2000 mg/Kg of the drug and observed after 24 h to count the deceased animals. According to the Guideline 423, when all animals were found alive, the same test was repeated (dose 2000 mg/kg) were given to the third group (3 animals) and observed for 24 h. All animals survived and therefore, a dose of 5000 mg/kg were administered to the fourth and final group.
smiles,measurement,setting,value
"CCCNC(=O)/C(=C/c1c[nH]c2ccccc12)NC(=O)/C=C/c1cccs1 [Compound 4112, (Z)-3-(1H-indol-3-yl)-N-propyl-2-[(E)-3-(thien-2-yl)acrylamidolacry]amide]",IC50,HCT-116 cells [1],2850 ± 1500 nM
same,percentage of cells with fragmented DNA and condensed nuclei,HCT-116 cells [2],greatly increased
same,GHS acute toxicity category,Swiss albino mice,Category 5
